Data published in patent US12275731B2, “Azaindole inhibitors of wild-type and mutant forms of LRRK2” (DANA-FARBER CANCER INSTITUTE, INC., priority 2018, dated 2025).

How the values were obtained:
Assay in all cases: KinomeScan profiling
Assay type in all cases: binding
DDR2 = target: T1, DDR2 (Homo sapiens, UniProt Q16832); conditions: DDR2, 1 μM; read-out: % control
T1 sequence (Q16832 22-855): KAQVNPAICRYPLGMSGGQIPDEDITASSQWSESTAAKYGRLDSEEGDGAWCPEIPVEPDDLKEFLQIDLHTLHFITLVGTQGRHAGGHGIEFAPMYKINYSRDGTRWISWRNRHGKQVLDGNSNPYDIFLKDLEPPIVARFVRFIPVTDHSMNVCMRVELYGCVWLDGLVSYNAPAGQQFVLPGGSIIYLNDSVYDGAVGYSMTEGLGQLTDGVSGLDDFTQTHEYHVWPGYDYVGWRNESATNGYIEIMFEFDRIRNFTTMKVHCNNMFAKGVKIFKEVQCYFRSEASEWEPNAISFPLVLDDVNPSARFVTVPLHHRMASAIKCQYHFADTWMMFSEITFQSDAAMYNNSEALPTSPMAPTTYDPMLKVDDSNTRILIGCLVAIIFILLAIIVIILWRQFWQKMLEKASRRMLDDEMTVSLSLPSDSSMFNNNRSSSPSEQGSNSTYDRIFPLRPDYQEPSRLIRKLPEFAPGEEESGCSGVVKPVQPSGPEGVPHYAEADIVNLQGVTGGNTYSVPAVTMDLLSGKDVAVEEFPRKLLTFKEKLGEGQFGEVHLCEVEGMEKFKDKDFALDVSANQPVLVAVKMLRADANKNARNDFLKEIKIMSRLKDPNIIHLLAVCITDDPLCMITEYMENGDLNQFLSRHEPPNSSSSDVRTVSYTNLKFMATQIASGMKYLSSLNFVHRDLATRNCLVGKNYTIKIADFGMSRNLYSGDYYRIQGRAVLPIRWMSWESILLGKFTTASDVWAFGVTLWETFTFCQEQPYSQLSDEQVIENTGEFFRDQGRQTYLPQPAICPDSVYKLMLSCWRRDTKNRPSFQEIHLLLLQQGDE
How it was run: (§1)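 Percent-of-control values derive from RLU, calculated as (test − positive)/(negative − positive) × 100, where DMSO defines 100% and a positive control compound defines 0%. Each compound was tested at 1 μM in the 468-kinase panel; sub-35% readings indicate activity.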

MEK5 = target: T2, MEK5 (Homo sapiens, UniProt Q13163); conditions: MEK5, 1 μM; read-out: % control
T2 sequence (Q13163 1-448): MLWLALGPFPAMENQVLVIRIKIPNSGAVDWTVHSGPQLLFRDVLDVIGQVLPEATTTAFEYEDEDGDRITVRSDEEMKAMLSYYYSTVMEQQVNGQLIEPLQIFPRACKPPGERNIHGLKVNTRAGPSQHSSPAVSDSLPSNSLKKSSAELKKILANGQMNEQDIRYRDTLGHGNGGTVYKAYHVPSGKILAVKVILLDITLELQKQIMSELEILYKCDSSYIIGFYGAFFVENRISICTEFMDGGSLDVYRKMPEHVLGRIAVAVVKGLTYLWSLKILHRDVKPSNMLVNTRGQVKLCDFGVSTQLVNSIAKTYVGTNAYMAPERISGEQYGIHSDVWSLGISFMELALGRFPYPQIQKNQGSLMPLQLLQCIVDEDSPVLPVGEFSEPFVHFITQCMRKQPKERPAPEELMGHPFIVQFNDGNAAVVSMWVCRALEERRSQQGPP
How it was run: as §1

NDR1 = NDR1 (Homo sapiens, UniProt Q15208); conditions: NDR1, 1 μM; read-out: % control
How it was run: as §1

PAK7 = PAK7 (Homo sapiens, UniProt Q9P286); conditions: PAK7, 1 μM; read-out: % control
How it was run: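 Test agents were profiled at a single concentration of 1 μM (DMSO vehicle) on a near-complete set of 468 kinases. Signal is reported relative to vehicle (100%) and a fully displacing control (0%).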

PFTAIRE2 = PFTAIRE2 (Homo sapiens, UniProt Q96Q40); conditions: PFTAIRE2, 1 μM; read-out: % control
How it was run: as §1

TYRO3 = target: T3, TYRO3 (Homo sapiens, UniProt Q06418); conditions: TYRO3, 1 μM; read-out: % control
T3 sequence (Q06418 41-890): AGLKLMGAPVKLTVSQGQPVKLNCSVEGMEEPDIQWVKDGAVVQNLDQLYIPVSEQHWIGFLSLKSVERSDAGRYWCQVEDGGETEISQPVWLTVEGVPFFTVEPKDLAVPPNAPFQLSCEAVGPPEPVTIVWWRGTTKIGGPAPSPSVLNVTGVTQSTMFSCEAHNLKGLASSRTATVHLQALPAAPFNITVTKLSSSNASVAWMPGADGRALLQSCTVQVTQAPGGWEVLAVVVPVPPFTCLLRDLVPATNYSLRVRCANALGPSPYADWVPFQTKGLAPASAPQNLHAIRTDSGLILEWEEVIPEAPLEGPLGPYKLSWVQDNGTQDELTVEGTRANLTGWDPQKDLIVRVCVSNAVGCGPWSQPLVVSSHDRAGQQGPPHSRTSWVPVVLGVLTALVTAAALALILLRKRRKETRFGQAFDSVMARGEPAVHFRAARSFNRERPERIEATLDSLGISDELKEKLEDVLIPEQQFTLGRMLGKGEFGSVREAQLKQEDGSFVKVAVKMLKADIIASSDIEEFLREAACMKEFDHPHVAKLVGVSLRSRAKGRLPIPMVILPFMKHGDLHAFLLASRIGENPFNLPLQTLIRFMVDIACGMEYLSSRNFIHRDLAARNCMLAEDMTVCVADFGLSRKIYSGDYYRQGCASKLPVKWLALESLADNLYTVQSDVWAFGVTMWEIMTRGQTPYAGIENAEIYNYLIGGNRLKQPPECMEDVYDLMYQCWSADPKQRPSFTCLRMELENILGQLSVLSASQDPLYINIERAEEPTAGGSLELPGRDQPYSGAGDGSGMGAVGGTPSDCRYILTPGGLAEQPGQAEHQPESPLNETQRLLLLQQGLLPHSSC
How it was run: as §1

WEE1 = WEE1 (Homo sapiens, UniProt P30291); conditions: WEE1, 1 μM; read-out: % control
How it was run: as §1

Sequence of NDR1 (Q15208 whole entry): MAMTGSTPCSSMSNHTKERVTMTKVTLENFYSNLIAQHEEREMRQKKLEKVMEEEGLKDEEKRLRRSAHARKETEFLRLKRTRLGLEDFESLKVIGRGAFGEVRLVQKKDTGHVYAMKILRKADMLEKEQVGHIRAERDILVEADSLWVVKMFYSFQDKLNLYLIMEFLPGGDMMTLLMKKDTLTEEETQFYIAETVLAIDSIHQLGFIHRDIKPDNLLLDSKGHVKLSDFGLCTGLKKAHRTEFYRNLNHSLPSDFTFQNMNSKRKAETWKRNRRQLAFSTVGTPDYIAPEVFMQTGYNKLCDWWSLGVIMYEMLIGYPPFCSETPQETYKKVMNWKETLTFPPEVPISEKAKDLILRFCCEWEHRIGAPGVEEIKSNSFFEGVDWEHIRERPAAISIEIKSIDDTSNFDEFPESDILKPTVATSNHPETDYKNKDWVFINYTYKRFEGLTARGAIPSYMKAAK
Sequence of PFTAIRE2 (Q96Q40 whole entry): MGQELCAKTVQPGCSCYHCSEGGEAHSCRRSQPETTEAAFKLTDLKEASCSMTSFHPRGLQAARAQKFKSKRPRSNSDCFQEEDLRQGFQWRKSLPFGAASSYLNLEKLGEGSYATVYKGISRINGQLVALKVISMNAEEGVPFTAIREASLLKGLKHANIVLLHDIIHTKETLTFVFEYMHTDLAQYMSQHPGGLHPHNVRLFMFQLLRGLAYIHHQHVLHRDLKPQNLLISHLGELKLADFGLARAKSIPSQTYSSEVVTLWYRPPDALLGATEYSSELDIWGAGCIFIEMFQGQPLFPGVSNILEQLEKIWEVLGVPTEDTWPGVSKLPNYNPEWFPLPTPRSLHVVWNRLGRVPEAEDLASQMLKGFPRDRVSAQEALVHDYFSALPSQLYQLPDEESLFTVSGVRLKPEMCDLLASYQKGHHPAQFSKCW
Sequence of WEE1 (P30291 whole entry): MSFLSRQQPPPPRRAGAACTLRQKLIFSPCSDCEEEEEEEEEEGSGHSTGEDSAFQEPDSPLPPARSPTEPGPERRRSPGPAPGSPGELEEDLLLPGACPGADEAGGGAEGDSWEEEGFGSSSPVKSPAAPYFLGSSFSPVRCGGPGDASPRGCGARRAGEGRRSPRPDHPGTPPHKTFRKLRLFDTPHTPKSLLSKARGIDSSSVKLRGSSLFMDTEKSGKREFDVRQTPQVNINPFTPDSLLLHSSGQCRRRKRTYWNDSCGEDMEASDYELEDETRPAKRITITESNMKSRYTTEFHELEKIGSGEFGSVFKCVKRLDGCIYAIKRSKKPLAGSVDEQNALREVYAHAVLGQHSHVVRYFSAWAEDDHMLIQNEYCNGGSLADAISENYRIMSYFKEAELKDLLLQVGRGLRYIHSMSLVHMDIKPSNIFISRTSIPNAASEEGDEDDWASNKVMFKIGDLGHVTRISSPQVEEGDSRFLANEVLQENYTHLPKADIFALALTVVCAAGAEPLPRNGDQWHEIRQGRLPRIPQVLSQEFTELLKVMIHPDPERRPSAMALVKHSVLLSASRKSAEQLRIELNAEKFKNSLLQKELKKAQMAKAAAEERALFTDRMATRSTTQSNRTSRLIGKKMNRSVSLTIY
Sequence of PAK7 (Q9P286 whole entry): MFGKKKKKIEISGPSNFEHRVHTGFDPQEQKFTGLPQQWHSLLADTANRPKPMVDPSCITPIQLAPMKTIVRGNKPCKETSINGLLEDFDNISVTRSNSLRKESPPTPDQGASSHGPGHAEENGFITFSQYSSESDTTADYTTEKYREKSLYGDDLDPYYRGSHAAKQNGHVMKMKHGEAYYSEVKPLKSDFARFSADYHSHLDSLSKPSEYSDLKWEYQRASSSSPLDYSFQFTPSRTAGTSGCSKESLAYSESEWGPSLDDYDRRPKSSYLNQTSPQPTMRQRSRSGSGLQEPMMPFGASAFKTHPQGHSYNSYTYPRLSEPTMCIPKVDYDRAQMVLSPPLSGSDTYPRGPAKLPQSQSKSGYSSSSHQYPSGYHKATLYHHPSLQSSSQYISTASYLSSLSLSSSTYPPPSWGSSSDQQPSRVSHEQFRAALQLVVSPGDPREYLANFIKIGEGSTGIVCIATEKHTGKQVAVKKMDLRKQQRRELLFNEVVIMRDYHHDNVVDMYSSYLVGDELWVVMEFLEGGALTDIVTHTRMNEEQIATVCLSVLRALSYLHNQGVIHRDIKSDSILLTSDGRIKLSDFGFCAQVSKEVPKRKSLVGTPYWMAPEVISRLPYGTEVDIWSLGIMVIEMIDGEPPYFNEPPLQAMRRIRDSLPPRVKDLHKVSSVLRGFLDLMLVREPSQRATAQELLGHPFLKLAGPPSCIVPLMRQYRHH

Row | SMILES | remaining binding at 1 µM (DDR2) [%] | remaining binding at 1 µM (MEK5) [%] | remaining binding at 1 µM (NDR1) [%] | remaining binding at 1 µM (PAK7) [%] | remaining binding at 1 µM (PFTAIRE2) [%] | remaining binding at 1 µM (TYRO3) [%] | remaining binding at 1 µM (WEE1) [%]
1 | CNc1c(-c2ccc(C(=O)N3CCC(N4CCOCC4)CC3)cc2)cnc2[nH]cc(Cl)c12 [Compound 96, (4-(3-chloro-4-(methylamino)-1H-pyrrolo[2,3-b]pyridin-5-yl)phenyl)(4-morpholinopiperidin-1-yl)methanone] | 79 | 7.3 | 69 | 41 | 100 | 100 | 88
2 | O=C(c1ccc(-c2cnc3[nH]cc(Cl)c3c2NC2CCCC2)cc1)N1CCC(N2CCOCC2)CC1 [Compound 101, (4-(3-chloro-4-(cyclopentylamino)-1H-pyrrolo[2,3-b]pyridin-5-yl)phenyl)(4-morpholinopiperidin-1-yl)methanone] | 100 | 100 | 84 | 95 | 91 | 56 | 100
3 | CNc1c(-c2cnn([C@H]3CCN(C(C)=O)C[C@@H]3F)c2)cnc2[nH]cc(Cl)c12 [Compound 77, 1-((3S,4S)-4-(4-(3-chloro-4-(methylamino)-1H-pyrrolo[2,3-b]pyridin-5-yl)-1H-pyrazol-1-yl)-3-fluoropiperidin-1-yl)ethan-1-one] | 86 | 3.2 | 74 | 100 | 100 | 100 | 97
